Counter-ions that a name gives are not always drawn.
Key:
[1] = Fluorescent signal of starting amine, monomers and polymers at pH 7 (Example 22); assay type: physicochemical; conditions: 45 ppb of amine or monomer
Method: The fluorescent signal for the starting N-(3-dimethylaminopropyl)-4-methoxy-1,8-naphthalilmide, the monomers from Monomer Example 3 and 3a (comparative) and the polymers of Polymer Example 20 (comparative) and Polymer Example 21 were measured at 10 ppm polymer and 45 ppb of N-(3-dimethylaminopropyl)-4-methoxy-1,8-naphthalilmide and monomers at pH 7.

[2] = Fluorescent signal of polymers diluted to 10 ppm at pH 9 (Shimadzu RF-6000 spectro fluorimeter); assay type: physicochemical; conditions: non-monomer intermediate at 59 ppb
Method: The polymer samples from Polymer Examples 1-4 each were diluted in water to 10 ppm and the pH was adjusted to 9, and the fluorescent signal was determined by excitation of the sample at the excitation wavelengths and measurement at the emission wavelengths as stated in Table 1 using a Shimadzu RF-6000 model spectro fluorimeter.
The fluorescence signal for the polymer of Example 1 at 10 ppm and at pH 9 was measured. Also, the fluorescence intensity of the intermediate N-(3-dimethylaminopropyl)-4-methoxy-1,8-naphthalilmide non-monomer intermediate used to synthesize the monomer used in Example 1 was measured at pH 9 and at 59 ppb. The 59 ppb was used because this is the amount of monomer that would have been present in 10 ppm of polymer.

Compound | Emission wavelength λ [1] [nm] | Excitation wavelength λ [1] [nm] | Fluorescence intensity [1] | Emission wavelength λ [2] [nm] | Excitation wavelength λ [2] [nm] | Fluorescence intensity [2]
4-methoxy-N-(3-dimethylaminopropyl)-1,8-naphthalimide, 2-hydroxy-3-allyloxy propyl, quaternary salt [Monomer Example 3a, reference compound] | 460 | 376 | 8312 | – | – | –
C=CCOCC(O)C[N+](C)(C)CCCN1C(=O)c2cccc3c(OC)ccc(c23)C1=O (stereo not drawn) [Monomer Example 3, 4-methoxy-N-(3-dimethylaminopropyl)-1,8-naphthalimide, 1 or 2-hydroxy-3-allyloxy propyl, quaternary salt] | 460 | 376 | 6774 | – | – | –
COc1ccc2c3c(cccc13)C(=O)N(CCCN(C)C)C2=O [N-(3-dimethylaminopropyl)-4-methoxy-1,8-naphthalimide] | 460 | 376 | 9850 | 462 | 376 | 7788

From US11208408B2, “Method of controlling scale in aqueous systems” (NOURYON CHEMICALS INTERNATIONAL B.V., priority 2019, dated 2021)
